Laboratory results published in US7157092B1, “Acyl pseudodipeptides, preparation method and pharmaceutical compositions containing same” (Om Pharma, priority 1998, dated 2007).
Values joined by “and” are separate entries in the source; they are usually repeats but may differ in a detail not shown here. Equal entries are not always repeated.

Test system: TT antigen
Experiment: Subcutaneous immunization with TT antigen (tetanos toxoid): specific serum immunoglobulins (ELISA)
Format: in vivo, BALB/c mice
Settings: for adjuvant effect on titer of IgG1 and IgG2a antibodies specifically raised against TT: after one or two injections, FIGS. 28, 29; for Titer of immunoglobulins specifically directed against TT of IgM subclass (number of animals and dilution): dilution giving signal at 490 nm greater than mean ± 3 SD of group A; for Immunoglobulins specifically raised against TT of IgG1 subclass / Immunoglobulins specifically raised against TT of IgG2a subclass: s.c. injections days 0 and 14, adjuvant 50 μg per injection, ± SD
Experimental: To this end, 40 BALB/c mice (females, 8 weeks-old at the beginning of treatment) are divided into 4 groups as follows:
Antigen: A TT stock solution is prepared at a concentration of 0.2 mg/ml in 0.9% NaCl.
The negative control consists of a 0.9% NaCl solution without antigen.
Antigen-Adjuvant mixture: Adjuvants are allowed to stand for 20 minutes at 37° C. before vortex treatment for 3 minutes. Then the antigen and (0.9%) NaCl are added as specified in the above Table, and the antigen/adjuvant mixture is vortexed briefly before placing it on a rotary stirrer for 15 minutes at room temperature, then the whole mixture is vortexed for 3 minutes.
Immunization regimen: Injections are scheduelled on days 0 and 14. The mixtures stated in the preceeding table are administered by subcutaeous route (75 μl on the side, 150 μl in total per animal). Blood sampling is scheduelled on days 14 and 28 (orbital puncture).
Assay for anti-TT immunoglobulins: The following serum Immunolglobulins which are specifically directed against TT are assayed in duplicate by ELISA: IgG1, IgG2a, and IgM. Microtiter plates (NUNC Immunoplate, Roskilde, DK) are incubated (overnight coating) at 4° C. together with 100 μl TT (0.5 μg) in bicarbonate buffer (pH 9.6). After washing with 0.5% Tween-20 (Merck Hohenbrunn, D), sera are diluted 50-, 200- and 800-fold (diluting solution: phosphate buffered saline (PBS)+1% bovine serum albumin (BSA, Sigma, St. Louis, Mo., USA)+0.02% Tween-20)). 100 μl of each dilute serum sample are added to the wells. Incubation lasts 45 minutes at 37° C.
After a second washing step, IgG1, IgG2a and IgM specifically directed to ovalbumin are incubated for 30 minutes at 37° C. together with 100 μl of anti-IgG1 antibodies-peroxydase conjugate (Serotec, Oxford, UK), IgG2a-peroxydase conjugate (Pharmingen, San Diego, Calif., USA) and IgM-biotin conjugate (Pharmingen, San Diego, Calif., USA), diluted beforehand in PBS/BSA/Tween buffer (250-, 1000-, 500-fold dilutions, respectively). For IgM, after an extra washing step, a 3rd incubation step is required (30 min. at 37° C.) with a 1:100 dilute solution of streptavidin-peroxydase conjugate (Dako, Glostrup, DK).
After the washing step, 100 μl of a phenylene 1,2-diamine solution (OPD, Merck, Darmstadt, GFR) are added to detect peroxydase-coupled anti-IgG1 and anti-IgG2 secondary antibodies (whereas for IgM, the reagent being used is 3′, 3′, 5′,5′-tetramethylbenzidine (TMB, Sigma, St. Louis, Mo., USA). After a 20 minute incubation period at room temperature (40 min. for TMB), the reaction is stopped by adding 100 μl of 2N H2SO4. Absorbance values are read at 490 nm with a Bio-Rad 3550 model plate reader
Results of each reading at 490 nm when measuring IgG1 and IgG2a are given in arbitrary units (A.U.) per ml. This is achieved by comparing each sample with a standard prepared from different dilutions of a sample pool collected from the group B at day 28 (animals injected with TT alone). As this term implies, the sample pool diluted 50-fold is at a concentration of 1000 A.U./ml. Individual results are then corrected for the corresponding dilution factor (50, 200, or 800 fold). Only the mean values of each group and the standard deviation (SD) are herein reported.
Regarding the assay of IgM specific for TT, since the “background noise” of the assay was too high, no clear cut difference could be found between group B (TT alone) and groups C and D (TT with adjuvant) by measuring specific IgM as previously done for IgG1 and IgG2a. Instead, specific IgM titer could be determined, using successive dilutions of each sample (rather than A.U. described before) and the result was reported, for each sample, as the highest dilution which gives an absorbance reading greater than mean absorbance±3 SD for group A (NaCl).

Compound	adjuvant effect on titer of IgG1 and IgG2a antibodies specifically raised against TT	Titer of immunoglobulins specifically directed against TT of IgM subclass (number of animals and dilution) (Day 14)	Immunoglobulins specifically raised against TT of IgG1 subclass (Day 14)	Immunoglobulins specifically raised against TT of IgG2a subclass (Day 14)	Titer of immunoglobulins specifically directed against TT of IgM subclass (number of animals and dilution) (Day 28)	Immunoglobulins specifically raised against TT of IgG1 subclass (Day 28)	Immunoglobulins specifically raised against TT of IgG2a subclass (Day 28)
CCCCCCCCCCCC(=O)O[C@H](CCCCCCCCCCC)CC(=O)NC(CCOP(=O)(O)O)C(=O)NCCCC(COP(=O)(O)O)NC(=O)C[C@H](O)CCCCCCCCCCC (stereo partly drawn) [OM-294-DP, 3-[(R)-3-dodecanoyloxytetradecanoylamino]-4-oxo-5-aza-9-[(R)-3-hydroxytetradecanoylamino]decan-1,10-diol 1, 10-bis(dihydrogenphosphate)]	often significantly increase the titer of IgG1 and IgG2a antibodies	–	–	–	–	–	–
CCCCCCCCCCCC(=O)O[C@H](CCCCCCCCCCC)CC(=O)NC(CCOP(=O)(O)O)C(=O)NCCCC(CO)NC(=O)C[C@H](O)CCCCCCCCCCC (stereo partly drawn) [OM-294-MP, 3-[(R)-3-dodecanoyloxytetradecanoylamino]-4-oxo-5-aza-9-[(R)-3-hydroxytetradecanoylamino]-decane-1,10-diol 1-dihydrogenphosphate]	often significantly increase the titer of IgG1 and IgG2a antibodies	–	–	–	–	–	–
TT: TT antigen (tetanos toxoid, Massachussetts Biologic Laboratoires), injected alone	–	9 animals < 25 and 1 animal < 50	2871 ± 1633 Arbitrary units/ml	2547 ± 2539 Arbitrary units/ml	10 animals < 25	34367 ± 15018 Arbitrary units/ml	61387 ± 82269 Arbitrary units/ml
